According to patent US9708336B2, “Metallo-beta-lactamase inhibitors” (priority 2014, dated 2017):
Where two headings read alike, the source gives them in different places.

Key:
[1] = biological target: NDM-1 (Klebsiella pneumoniae, UniProt C7C422); assay: biochemical; type: biochemical; settings: read-out: NDM-1 IC50
[2] = biological target: IMP-1 (Serratia marcescens, UniProt P52699); assay: biochemical; type: biochemical; settings: read-out: IMP-1 IC50
[3] = tested on: Escherichia coli expressing NDM-1 (CLB30016); assay: Antibiotic potentiation activity: synergistic concentration (MITC95) with imipenem, OD600 growth; type: cell-based; settings: for Escherichia coli expressing NDM-1 (CLB 30016) MITC95: concentration giving 95% inhibition of bacterial growth
Procedure, shortened: (§1)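 Test compound was combined with 4 μg/ml imipenem (or optionally 1 μg/ml), or with no antibiotic, against saline-suspended colonies diluted 1:100 in 1.1×CAMHB. Strains were E. coli NDM-1, S. marcescens IMP-1 and K. pneumoniae VIM-1. Plates were incubated 22–24 h at 35 °C before absorbance (OD600) readout.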

[4] = tested on: Serratia marcescens expressing IMP-1 (CL5741); assay: as above; type: cell-based; settings: for Serratia marcescens expressing IMP-1 (CL5741) MITC95: concentration giving 95% inhibition of bacterial growth
Procedure, shortened: as §1

[5] = tested on: Klebsiella pneumoniae expressing VIM-1 (IHMA599644); assay: as above; type: cell-based; settings: for Klebsiella pneumoniae expressing VIM-1 (IHMA 599644) MITC95: concentration giving 95% inhibition of bacterial growth
Procedure, shortened: as §1

[6] = biological target: VIM-1 (Pseudomonas aeruginosa (strain ATCC 15692 / DSM 22644 / CIP 104116 / JCM 14847 / LMG 12228 / 1C / PRS 101 / PAO1), UniProt A0A0F7KYQ8); assay: Enzyme activity: determination of IC50, fluorescence assay with CCF2-FA substrate (VIM-1); type: biochemical
[7] = NDM-1 enzyme, CCF2-FA substrate
[8] = IMP-1 enzyme, CCF2-FA substrate
[9] = (CLB30016, NDM-1), 95% growth inhibition
[10] = Serratia marcescens CL5741 (IMP-1), 95% growth inhibition
[11] = Klebsiella pneumoniae IHMA599644 (VIM-1), 95% growth inhibition
[12] = VIM-1 IC50, VIM-1 enzyme, CCF2-FA substrate
[13] = fluorescence assay with CCF2-FA substrate
[14] = fluorescence assay with CCF2-FA substrate, read-out: VIM-1 IC50
[15] = VIM-1 enzyme, CCF2-FA substrate, read-out: VIM-1 IC50
[16] = NDM-1 enzyme, CCF2-FA fluorescence assay
[17] = IMP-1 enzyme, CCF2-FA fluorescence assay
[18] = Escherichia coli expressing NDM-1 (CLB30016), 95% growth inhibition
[19] = Serratia marcescens expressing IMP-1 (CL5741), 95% growth inhibition
[20] = Klebsiella pneumoniae expressing VIM-1 (IHMA599644), 95% growth inhibition
[21] = VIM-1 enzyme, CCF2-FA fluorescence assay, read-out: VIM-1 IC50
[22] = CLB30016 (NDM-1), 95% inhibition of bacterial growth
[23] = CL5741 (IMP-1), 95% inhibition of bacterial growth
[24] = IHMA599644 (VIM-1), 95% inhibition of bacterial growth

Chain of NDM-1 (C7C422 whole entry, looked up, species assumed): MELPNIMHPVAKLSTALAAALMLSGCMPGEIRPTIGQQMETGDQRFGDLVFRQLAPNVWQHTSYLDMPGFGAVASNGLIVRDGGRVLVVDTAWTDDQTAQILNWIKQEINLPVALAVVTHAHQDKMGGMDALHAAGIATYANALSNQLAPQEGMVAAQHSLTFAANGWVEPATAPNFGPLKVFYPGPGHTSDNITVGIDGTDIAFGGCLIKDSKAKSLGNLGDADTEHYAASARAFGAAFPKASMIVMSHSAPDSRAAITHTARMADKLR
Chain of IMP-1 (P52699 whole entry, looked up): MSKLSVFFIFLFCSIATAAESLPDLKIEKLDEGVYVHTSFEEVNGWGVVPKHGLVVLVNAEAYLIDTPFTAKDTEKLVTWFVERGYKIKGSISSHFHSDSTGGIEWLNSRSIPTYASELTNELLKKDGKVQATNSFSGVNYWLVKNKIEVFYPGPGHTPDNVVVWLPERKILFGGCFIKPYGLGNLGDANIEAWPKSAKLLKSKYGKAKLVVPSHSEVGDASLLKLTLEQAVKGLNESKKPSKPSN

NC[C@H]1CC[C@@H](Cc2ccc(-c3ccc(C4CNC4)cc3)c(-c3nnn[nH]3)c2S(N)(=O)=O)CC1 [Example 602, 4-(((1s,4s)-4-(aminomethyl)cyclohexyl)methyl)-4′-(azetidin-3-yl)-2-(1H-tetrazol-5-yl)-[1,1′-biphenyl]-3-sulfonamide]
IC50 [1, 7]: 3.95 nM | IC50 [2, 8]: 21 nM | Escherichia coli MITC95 [3, 9]: 1.563 µM | Serratia marcescens MITC95 [4, 10]: 3.125 µM | Klebsiella pneumoniae MITC95 [5, 11]: 1.563 µM | IC50 [6, 12]: 2.47 nM

NS(=O)(=O)c1nccc(N2CCC(c3cnc4n3CCCC4)CC2)c1-c1nnn[nH]1 [Example 225, 4-[4-(5,6,7,8-tetrahydroimidazo[1,2-a]pyridin-3-yl)piperidin-1-yl]-3-(1H-tetrazol-5-yl)pyridine-2-sulfonamide]
IC50 [1, 13]: 142 nM | IC50 [2, 13]: 76.2 nM | Escherichia coli expressing NDM-1 (CLB 30016) MITC95 [3]: 9.375 µM | Serratia marcescens expressing IMP-1 (CL5741) MITC95 [4]: 2.344 µM | Klebsiella pneumoniae expressing VIM-1 (IHMA 599644) MITC95 [5]: 50 µM | IC50 [6, 14]: 226 nM

NS(=O)(=O)c1cccc(C2CCC(N3CCNCC3)CC2)c1-c1nn[nH]n1 (stereo not drawn) [Example 170, 3-(4-(piperazin-1-yl)cyclohexyl)-2-(2H-tetrazol-5-yl)benzenesulfonamide]
IC50 [1, 13]: 21.9 nM | IC50 [2, 13]: 577 nM | Escherichia coli expressing NDM-1 (CLB 30016) MITC95 [3]: 1.563 µM | Serratia marcescens expressing IMP-1 (CL5741) MITC95 [4]: 9.375 µM | Klebsiella pneumoniae expressing VIM-1 (IHMA 599644) MITC95 [5]: 200 µM | IC50 [6, 14]: 3470 nM

CC(C)[C@H](N)CN1CCC(c2ccc(-c3cccc(S(N)(=O)=O)c3-c3nnn[nH]3)cc2)CC1 [Example 615, 3-[4-[1-[(2S)-2-amino-3-methyl-butyl]-4-piperidyl]phenyl]-2-(1H-tetrazol-5-yl)benzenesulfonamide]
IC50 [1, 7]: 9.84 nM | IC50 [2, 8]: 16.7 nM | Escherichia coli MITC95 [3, 9]: 0.7813 µM | Serratia marcescens MITC95 [4, 10]: 1.172 µM | Klebsiella pneumoniae MITC95 [5, 11]: >200 µM | IC50 [6, 15]: 621 nM

CN(CCO)Cc1ccc(-c2cccc(S(N)(=O)=O)c2-c2nnn[nH]2)cc1 [Example 335, 4′-(((2-hydroxyethyl)(methyl)amino)methyl)-2-(1H-tetrazol-5-yl)-[1,1′-biphenyl]-3-sulfonamide]
IC50 [1, 16]: 15 nM | IC50 [2, 17]: 228 nM | Escherichia coli MITC95 [3, 18]: 0.3906 µM | Serratia marcescens MITC95 [4, 19]: 3.125 µM | Klebsiella pneumoniae MITC95 [5, 20]: 25 µM | IC50 [6, 21]: 227 nM

NS(=O)(=O)c1c(C(F)(F)F)ccc(CC[C@H]2CC[C@@H](N)CC2)c1-c1nn[nH]n1 [Example 432, 3-(2-((1s,4r)-4-aminocyclohexyl)ethyl)-2-(2H-tetrazol-5-yl)-6-(trifluoromethyl)benzenesulfonamide]
IC50 [1, 16]: 47.9 nM | IC50 [2, 17]: 11.7 nM | Escherichia coli MITC95 [3, 18]: 6.25 µM | Serratia marcescens MITC95 [4, 19]: 0.3906 µM | Klebsiella pneumoniae MITC95 [5, 20]: 18.75 µM | IC50 [6, 21]: 4.72 nM

NCC1CCC(N[C@H]2CC[C@H](c3ccc(C(F)(F)F)c(S(N)(=O)=O)c3-c3nnn[nH]3)CC2)CC1 (stereo partly drawn) [Example 704, 3-(4-{[4-(aminomethyl)cyclohexyl]amino}cyclohexyl)-2-(1H-tetrazol-5-yl)-6-(trifluoromethyl)benzene sulfonamide]
IC50 [1, 7]: 14.8 nM | IC50 [2, 8]: 51.6 nM | Escherichia coli MITC95 [3, 9]: 1.563 µM | Serratia marcescens MITC95 [4, 10]: 6.25 µM | Klebsiella pneumoniae MITC95 [5, 11]: 6.25 µM | IC50 [6, 15]: 7.17 nM

NS(=O)(=O)c1c(C(F)(F)F)ccc(-c2ccc(C3CN(C4CCNCC4)C3)cc2)c1-c1nnn[nH]1 [Example 802, 4′-(1-piperidin-4-ylazetidin-3-yl)-2-(1H-tetrazol-5-yl)-4-(trifluoromethyl)biphenyl-3-sulfonamide]
IC50 [1, 13]: 3.25 nM | IC50 [2, 13]: 4.27 nM | Escherichia coli MITC95 [3, 22]: 6.25 µM | Serratia marcescens MITC95 [4, 23]: 6.25 µM | Klebsiella pneumoniae MITC95 [5, 24]: 100 µM | IC50 [6, 14]: 17.2 nM

NS(=O)(=O)c1cccc(-c2ccc(C3=CCNC3)cc2)c1-c1nn[nH]n1 [Example 285, 4′-(2,5-dihydro-1H-pyrrol-3-yl)-2-(2H-tetrazol-5-yl)-[1,1′-biphenyl]-3-sulfonamide]
IC50 [1, 16]: 2.83 nM | IC50 [2, 17]: 25.1 nM | Escherichia coli MITC95 [3, 18]: 0.3906 µM | Serratia marcescens MITC95 [4, 19]: 0.7813 µM | Klebsiella pneumoniae MITC95 [5, 20]: 3.125 µM | IC50 [6, 21]: 18 nM

Nc1nc2nccc(-c3ccc(C(F)(F)F)c(S(N)(=O)=O)c3-c3nnn[nH]3)c2[nH]1 [Example 570, 3-(2-amino-1H-imidazo[4,5-b]pyridin-7-yl)-2-(1H-tetrazol-5-yl)-6-(trifluoromethyl)benzenesulfonamide]
IC50 [1, 7]: 0.33 nM | IC50 [2, 8]: 4.06 nM | Escherichia coli MITC95 [3, 9]: 3.125 µM | Serratia marcescens MITC95 [4, 10]: 6.25 µM | Klebsiella pneumoniae MITC95 [5, 11]: 6.25 µM | IC50 [6, 15]: 0.49 nM

NC1(CN2CCC(c3ccc(-c4ccc(C(F)(F)F)c(S(N)(=O)=O)c4-c4nnn[nH]4)cc3)CC2)CC1 [Example 672, 4′-{1-[(1-aminocyclopropyl)methyl]piperidin-4-yl}-2-(1H-tetrazol-5-yl)-4-(trifluoromethyl)biphenyl-3-sulfonamide]
IC50 [1, 7]: 3.66 nM | IC50 [2, 8]: 2.51 nM | Escherichia coli MITC95 [3, 9]: 6.25 µM | Serratia marcescens MITC95 [4, 10]: 4.688 µM | Klebsiella pneumoniae MITC95 [5, 11]: 75 µM | IC50 [6, 12]: 3.38 nM

NS(=O)(=O)c1c(C(F)(F)F)ccc(N2C[C@@H](O)[C@H](O)C2)c1-c1nnn[nH]1 [Example 756, 3-[(3R,4R)-3,4-dihydroxypyrrolidin-1-yl]-2-(1H-tetrazol-5-yl)-6-(trifluoromethyl) benzenesulfonamide]
IC50 [1, 13]: 78.1 nM | IC50 [2, 13]: 89.1 nM | Escherichia coli MITC95 [3, 22]: 12.5 µM | Serratia marcescens MITC95 [4, 23]: 12.5 µM | Klebsiella pneumoniae MITC95 [5, 24]: >200 µM | IC50 ([6]; VIM-1 IC50, fluorescence assay with CCF2-FA substrate): 339 nM

NS(=O)(=O)c1c(C(F)(F)F)ccc(-c2ccc(N3CCNCC3)cc2)c1-c1nnn[nH]1 [Example 717, 4′-piperazin-1-yl-2-(1H-tetrazol-5-yl)-4-(trifluoromethyl)biphenyl-3-sulfonamide]
IC50 [1, 7]: 1.64 nM | IC50 [2, 8]: 2.62 nM | Escherichia coli MITC95 [3, 9]: 1.563 µM | Serratia marcescens MITC95 [4, 10]: 3.125 µM | Klebsiella pneumoniae MITC95 [5, 11]: 3.125 µM | IC50 [6, 15]: 0.598 nM

CNC(=O)CNCc1ccc(-c2cccc(S(N)(=O)=O)c2-c2nnn[nH]2)cc1 [Example 371, N-methyl-N~2~-{[3′-sulfamoyl-2′-(1H-tetrazol-5-yl)biphenyl-4-yl]methyl}glycinamide]
IC50 [1, 16]: 8.5 nM | IC50 [2, 17]: 78.3 nM | Escherichia coli MITC95 [3, 18]: 0.7813 µM | Serratia marcescens MITC95 [4, 19]: 2.344 µM | Klebsiella pneumoniae MITC95 [5, 20]: 100 µM | IC50 [6, 21]: 370 nM

NS(=O)(=O)c1c(CCCCCCO)ccc(CCCCCCO)c1-c1nn[nH]n1 [Example 543, 3,6-Bis(6-hydroxyhexyl)-2-(2H-tetrazol-5-yl)benzenesulfonamide]
IC50 [1, 7]: 2.62 nM | IC50 [2, 8]: 1.16 nM | Escherichia coli MITC95 [3, 9]: 50 µM | Serratia marcescens MITC95 [4, 10]: 12.5 µM | Klebsiella pneumoniae MITC95 [5, 11]: >200 µM | IC50 [6, 15]: 3.21 nM

Nc1ncc(-c2ccc(Br)c(S(N)(=O)=O)c2-c2nn[nH]n2)s1 [Example 424, 3-(2-aminothiazol-5-yl)-6-bromo-2-(2H-tetrazol-5-yl)benzenesulfonamide]
IC50 [1, 16]: 18.9 nM | IC50 [2, 17]: 80.8 nM | Escherichia coli MITC95 [3, 18]: 0.7813 µM | Serratia marcescens MITC95 [4, 19]: 1.563 µM | Klebsiella pneumoniae MITC95 [5, 20]: 15.63 µM | IC50 [6, 21]: 32.7 nM

Nc1nc2cccc(-c3ccc(C(F)(F)F)c(S(N)(=O)=O)c3-c3nnn[nH]3)c2[nH]1 [Example 551, 3-(2-amino-3H-benzimidazol-4-yl)-2-(1H-tetrazol-5-yl)-6-(trifluoromethyl)benzenesulfonamide]
IC50 [1, 7]: 0.142 nM | IC50 [2, 8]: 3.8 nM | Escherichia coli MITC95 [3, 9]: 0.3906 µM | Serratia marcescens MITC95 [4, 10]: 0.7813 µM | Klebsiella pneumoniae MITC95 [5, 11]: 1.563 µM | IC50 [6, 15]: 0.26 nM

NS(=O)(=O)c1nccc(N2CCC(c3cccnc3)CC2)c1-c1nnn[nH]1 [Example 218, 4-(4-pyridin-3-ylpiperidin-1-yl)-3-(1H-tetrazol-5-yl)pyridine-2-sulfonamide]
IC50 [1, 13]: 102 nM | IC50 [2, 13]: 484 nM | Escherichia coli expressing NDM-1 (CLB 30016) MITC95 [3]: 12.5 µM | Serratia marcescens expressing IMP-1 (CL5741) MITC95 [4]: 25 µM | Klebsiella pneumoniae expressing VIM-1 (IHMA 599644) MITC95 [5]: 100 µM | IC50 [6, 14]: 106 nM
